Results on six compounds are retold here after US5173481A, “Preparation of specifically substituted cyclodextrins” (The United States of America as represented by the …, priority 1990, dated 1992).

A short description of one data set: Solubility in water. The conditions noted are these: for solubility: water.
A short description of data set [1]: Solubility in water in the presence of excess toluene. The class given is physicochemical. The conditions noted are these: excess of toluene added to the aqueous phase; relative to 3.2 mg/ml in water. The method, then: The suspension obtained upon cooling a neutralization of reaction mixture was concentrated to 600 ml and dialyzed for 7 h at room temperature. The retained suspension (.intg.700 ml) was stirred with toluene (10 ml) for 14 h, water (500 ml) was added, stirred for 15 min, and filtered. The residue was suspended in water (1.25 L), stirred for 1 h, and filtered. The combined filtrates were concentrated to 200 ml, refrigerated overnight, the sclid was collected by filtration, and recrystallized from hot water to yield white crystals of the product. Rf 0.25 (1-propanol-water-ethyl acetate-ammonium hydroxide, 6:3:1:1), FIG. 1. M.P. 292°-293° C. MS (FAB+) m/e 1193.2 (M+H^+), 1210.3 (M+H2 O). MS (FAB-) m/e 1191.1 (M-H^+), 1210.2 (M+H2 O). MS (^252 Cf) m/e 1215.8 (M+Na^+). ^1 H-NMR (D2 O) δ5.30-5.23 and 5.17- 5.05 (m, 7H, H-1), 4.16-3.40 (m, 45H), 1.17 (d, J=6.42, 3H, CH3). Anal. for C45 H76 O36 ·3H2 O; calcd. C 43.30, H 6.58; found C 43.31, H 6.43.

As a reminder, the solubility is the dissolved amount per volume that the medium holds.

≈ marks a conversion by molar mass, not a printed value. A value given as a limit tells only on which side of the number the result lay.

Take `CC(O)CO[C@H]1[C@H]2O[C@H]3[C@H](O)[C@@H](O)[C@@H](O[C@H]4[C@H](O)[C@@H](O)[C@@H](O[C@H]5[C@H](O)[C@@H](O)[C@@H](O[C@H]6[C@H](O)[C@@H](O)[C@@H](O[C@H]7[C@H](O)[C@@H](O)[C@@H](O[C@H]8[C@H](O)[C@@H](O)[C@@H](O[C@@H]([C@@H]1O)[C@@H](CO)O2)O[C@@H]8CO)O[C@@H]7CO)O[C@@H]6CO)O[C@@H]5CO)O[C@@H]4CO)O[C@@H]3CO` (stereo partly drawn) [2-O-(2-hydroxypropyl)-β-cyclodextrin]: the “solubility (qualitative)” value in the data set “Solubility in water” (inferred as probable reason for easy isolation) was “very low solubility”. As for `CC(O)CO[C@H]1[C@H]2O[C@H]3[C@H](O)[C@@H](O)[C@@H](O[C@H]4[C@H](O)[C@@H](O)[C@@H](O[C@H]5[C@H](O)[C@@H](O)[C@@H](O[C@H]6[C@H](O)[C@@H](O)[C@@H](O[C@H]7[C@H](O)[C@@H](O)[C@@H](O[C@H]8[C@H](O)[C@@H](O)[C@@H](O[C@@H]([C@@H]1O)[C@@H](CO)O2)O[C@@H]8CO)O[C@@H]7CO)O[C@@H]6CO)O[C@@H]5CO)O[C@@H]4CO)O[C@@H]3CO` (stereo partly drawn) [2-O-[(RS)-2'-Hydroxypropyl]-β-cyclodextrin], the solubility in “Solubility in water” was 4 mg/mL (≈ 3.35 mM). In the data set “Solubility in water”, `C[C@@H](O)CO[C@H]1[C@H]2O[C@H]3[C@H](O)[C@@H](O)[C@@H](O[C@H]4[C@H](O)[C@@H](O)[C@@H](O[C@H]5[C@H](O)[C@@H](O)[C@@H](O[C@H]6[C@H](O)[C@@H](O)[C@@H](O[C@H]7[C@H](O)[C@@H](O)[C@@H](O[C@H]8[C@H](O)[C@@H](O)[C@@H](O[C@@H]([C@@H]1O)[C@@H](CO)O2)O[C@@H]8CO)O[C@@H]7CO)O[C@@H]6CO)O[C@@H]5CO)O[C@@H]4CO)O[C@@H]3CO` [2-O-[(R)-2'-Hydoxypropy]-β-cyclodextrin] had a solubility of 7.5 mg/mL (≈ 6.29 mM). This solubility is about 1.9-fold higher than that of the compound before. Same read-out and setting: for `OC[C@H](O)CO[C@H]1[C@H]2O[C@H]3[C@H](O)[C@@H](O)[C@@H](O[C@H]4[C@H](O)[C@@H](O)[C@@H](O[C@H]5[C@H](O)[C@@H](O)[C@@H](O[C@H]6[C@H](O)[C@@H](O)[C@@H](O[C@H]7[C@H](O)[C@@H](O)[C@@H](O[C@H]8[C@H](O)[C@@H](O)[C@@H](O[C@@H]([C@@H]1O)[C@@H](CO)O2)O[C@@H]8CO)O[C@@H]7CO)O[C@@H]6CO)O[C@@H]5CO)O[C@@H]4CO)O[C@@H]3CO` [2-O-[(S)-2', 3'-Dihydroxypropyl-β-cyclodextrin] the value was 12 mg/mL (≈ 9.93 mM). “Mono[(S)-2-Hydroxypropyl]-α-Cyclodextrin” gave a solubility in water of over 50%. Consider `C[C@H](O)CO[C@H]1[C@H]2O[C@H]3[C@H](O)[C@@H](O)[C@@H](O[C@H]4[C@H](O)[C@@H](O)[C@@H](O[C@H]5[C@H](O)[C@@H](O)[C@@H](O[C@H]6[C@H](O)[C@@H](O)[C@@H](O[C@H]7[C@H](O)[C@@H](O)[C@@H](O[C@H]8[C@H](O)[C@@H](O)[C@@H](O[C@@H]([C@@H]1O)[C@@H](CO)O2)O[C@@H]8CO)O[C@@H]7CO)O[C@@H]6CO)O[C@@H]5CO)O[C@@H]4CO)O[C@@H]3CO` [2-O-[(S)-2'-Hydroxypropyl]-β-cyclodextrin], for which the solubility in the data set “Solubility in water” was found to be 3.2 mg/mL (≈ 2.68 mM). Moreover, the “solubility in water with excess of toluene added” value in data set [1] is “only insignificantly changed”.
